Data taken from paper PMC3799893 (Recent results in cancer research. Fortschritte der …, 2013).

Molecular target: MC1R on B16/F10 murine melanoma cells (Mus musculus, UniProt Q01727)
Experiment: In vitro competitive binding assay

MC1R on B16/F10 murine melanoma cells, sequence (Q01727 whole entry): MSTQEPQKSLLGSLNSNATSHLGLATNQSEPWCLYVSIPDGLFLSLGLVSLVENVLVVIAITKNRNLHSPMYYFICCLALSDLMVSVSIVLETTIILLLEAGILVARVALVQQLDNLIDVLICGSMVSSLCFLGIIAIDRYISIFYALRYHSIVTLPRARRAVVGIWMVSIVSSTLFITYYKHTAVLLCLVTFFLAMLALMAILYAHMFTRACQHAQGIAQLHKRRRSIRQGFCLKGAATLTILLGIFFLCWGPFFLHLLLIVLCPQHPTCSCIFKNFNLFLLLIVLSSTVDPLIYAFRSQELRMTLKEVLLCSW

IC50: 1.8 ± 0.3 nM
SMILES: CSCC[C@H](NC(=O)[C@H](CO)NC(=O)[C@H](Cc1ccc(O)cc1)NC(=O)[C@H](CO)NC(=O)CN1CCN(CC(=O)O)CCN(CC(=O)O)CCN(CC(=O)O)CC1)C(=O)N[C@@H](CCC(=O)O)C(=O)N[C@@H](Cc1c[nH]cn1)C(=O)N[C@@H](Cc1ccccc1)C(=O)N[C@@H](CCCNC(=N)N)C(=O)N[C@@H](Cc1c[nH]c2ccccc12)C(=O)NCC(=O)N[C@@H](CCCCN)C(=O)N1CCC[C@H]1C(=O)N[C@H](C(N)=O)C(C)C [DOTA-a-MSH]
